Test results reported in patent US20110105389A1 (priority 2009, published 2011).
Read-outs that look alike come from different tables or passages of the source.

Experiments:
[1] = molecular target: T1, human ghrelin receptor (GRLN, growth hormone secretagogue receptor, hGHS-R1a) (Homo sapiens, UniProt Q92847); test: Competitive radioligand binding assay (ghrelin receptor), Method B1
T1 construct: purchased PerkinElmer BioSignal #RBHGHSM, lot#1887; host or cells: HEK-293 cells, stably transfected (membranes)
T1 sequence (Q92847 whole entry): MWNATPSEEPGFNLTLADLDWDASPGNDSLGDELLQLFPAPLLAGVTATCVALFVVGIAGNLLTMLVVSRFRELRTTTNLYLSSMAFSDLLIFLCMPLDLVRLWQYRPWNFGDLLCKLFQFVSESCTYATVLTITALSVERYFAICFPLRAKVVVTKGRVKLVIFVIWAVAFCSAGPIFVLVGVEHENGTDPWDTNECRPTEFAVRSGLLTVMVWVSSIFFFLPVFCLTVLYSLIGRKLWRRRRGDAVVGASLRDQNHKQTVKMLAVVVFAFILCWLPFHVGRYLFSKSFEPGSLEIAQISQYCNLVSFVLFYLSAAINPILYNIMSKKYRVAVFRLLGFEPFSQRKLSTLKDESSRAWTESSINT
In short: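 Membranes incubated with compound 30 min at rt in 25 mM Hepes pH 7.4, 1 mM CaCl2, 5 mM MgCl2, 2.5 mM EDTA, 0.4% BSA, max 0.1% DMSO; filtered on PEI-soaked GF/C, washed with cold Tris, scintillation counted. Curves fitted by variable-slope non-linear regression.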

[2] = molecular target: T2, GHS-R1a receptor (HEK293 cells expressing GHS-R1a receptor) (Homo sapiens, UniProt Q92847); test: Fluorescence functional assay (ghrelin receptor), Method B2, agonist and antagonist mode; format: cell-based; settings: functional activity as an antagonist at the ghrelin receptor, Methods B2 and B3
T2 construct: host or cells: HEK293
T2 sequence (Q92847 whole entry): as above
In short: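 Calcium flux read by ImageTrak epifluorescence in HEK293 cells stably expressing GHS-R1a, loaded 1 h at 37 °C with Calcium-3 dye; buffer HBSS/20 mM Hepes, pH 7.4, with probenecid and BSA. Agonists injected after 10 s baseline, read 50 s more; antagonists 3 min. Sigmoidal fits gave EC50 or IC50.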

[3] = molecular target: T3, CYP2D6 (Homo sapiens, UniProt P10635); test: Cytochrome P450 inhibition, Method B6; settings: read-out: IC50 CYP 2D6; Table 4b; dextromethorphan used as substrate
T3 sequence (P10635 whole entry): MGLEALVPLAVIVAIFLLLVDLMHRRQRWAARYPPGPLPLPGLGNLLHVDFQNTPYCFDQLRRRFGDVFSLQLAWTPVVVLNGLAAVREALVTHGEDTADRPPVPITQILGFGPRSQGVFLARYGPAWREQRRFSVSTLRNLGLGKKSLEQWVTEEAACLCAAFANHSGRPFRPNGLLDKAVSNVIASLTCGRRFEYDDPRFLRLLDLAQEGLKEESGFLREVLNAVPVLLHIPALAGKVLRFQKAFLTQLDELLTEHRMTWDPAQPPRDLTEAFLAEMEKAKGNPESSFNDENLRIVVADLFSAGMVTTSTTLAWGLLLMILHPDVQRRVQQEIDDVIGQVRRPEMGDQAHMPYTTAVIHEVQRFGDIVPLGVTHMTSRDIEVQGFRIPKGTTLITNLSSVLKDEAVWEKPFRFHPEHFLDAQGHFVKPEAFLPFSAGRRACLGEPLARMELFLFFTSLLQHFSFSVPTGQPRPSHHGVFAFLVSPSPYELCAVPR

[4] = molecular target: T4, CYP3A4 (Homo sapiens, UniProt P08684); test: Cytochrome P450 inhibition, Method B6 (two substrates); settings: read-out: IC50 CYP 3A4; Table 4b; midazolam used as substrate
T4 sequence (P08684 whole entry): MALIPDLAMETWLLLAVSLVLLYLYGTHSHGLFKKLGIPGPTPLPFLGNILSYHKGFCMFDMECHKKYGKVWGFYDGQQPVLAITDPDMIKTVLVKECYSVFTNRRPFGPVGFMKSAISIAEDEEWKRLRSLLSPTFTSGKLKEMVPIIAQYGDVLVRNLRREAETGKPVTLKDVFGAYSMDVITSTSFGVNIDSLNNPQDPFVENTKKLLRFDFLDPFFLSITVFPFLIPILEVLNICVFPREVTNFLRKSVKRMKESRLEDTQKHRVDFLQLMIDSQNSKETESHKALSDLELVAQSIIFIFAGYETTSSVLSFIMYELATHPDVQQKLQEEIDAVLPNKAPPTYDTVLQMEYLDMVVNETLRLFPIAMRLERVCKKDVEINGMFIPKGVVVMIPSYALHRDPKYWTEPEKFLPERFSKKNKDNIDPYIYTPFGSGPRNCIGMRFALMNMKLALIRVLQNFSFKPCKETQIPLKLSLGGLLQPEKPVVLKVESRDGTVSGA

[5] = Metabolic stability in human liver microsomes, Method B8; format: in vitro ADME; settings: human liver microsomes 0.8 mg/mL, 5 μM compound, 37° C.
From the text: B8. Metabolic Stability in Human Liver Microsomes
The liver is the primary site for phase I (oxidation) and phase II (glucuronidation) enzymatic activity responsible for xenobiotic metabolism. Human liver microsomes are used as in vitro screen of metabolic activity for candidate drugs. Similar studies can be run with microsomes from other species, such as those used for in vivo studies, to determine any significant species differences in the stability profile. The aim of this study was to measure the broad-spectrum metabolic stability of representative compounds of the invention. The key aspects of the experimental design are summarized below: • Human liver microsomes (mixed pool of 15 male and female donors) were purchased from In Vitro Technologies (Baltimore, Md.). • Microsomes characterized for phase I (Cyp2A6, 2D6, 2E1, 1A2, 2C19, 3A4, 4A) and phase II (glucuronidation) enzymatic activity. • Assays are performed using a final concentration of 0.8 mg/mL of microsomes in 100 mM potassium phosphate buffer (1.5 mM NADPH, 8 mM MgCl2, pH 7.4, 37° C.). • Compounds are tested in duplicate samples at a single concentration of 5 μM (0.05% DMSO). • Test articles are incubated with the microsomes at 37° C.

[6] = system: rat stomach fundus strips; test: Ex-vivo potency evaluation on the rat stomach fundus (inhibition of ghrelin-induced contractility), Method B10; settings: EFS
Protocol: B10. Ex-vivo Potency Evaluation on the Rat Stomach Fundus
Fundus strips (approximately 0.4×1 cm) were cut from the stomach of adult male Wistar rats parallel to the circular muscle fibers. They were placed between two platinum ring electrodes, 1 cm apart (Radnoti, ADlnstruments, USA) in 10 ml tissue baths containing Krebs solution bubbled with 5% CO2 in O2 and maintained at 37° C. Tissues were suspended under 1.5 g resting tension. Changes of tension were measured isometrically with force transducers and recorded with a PowerLab 8/30 data acquisition system (ADlnstruments, USA). Tissues were allowed to equilibrate for 60 min during which time bath solutions were changed every 15 min.
EFS was achieved by applying 0.5 ms pulses, 5 Hz frequency, at a maximally effective voltage of 70 V. EFS was applied for 30 sec at 3 min intervals for a 30 min initial period. This initial period was separated by a […] interval with wash out of the bath solution. Then, a second period of stimulation was started. […] Responses to the agents were measured and expressed as % of the mean of three or four pre-drug responses to EFS. All compounds were dissolved at 1 mM in distilled water or MeOH, as stock solutions.
IC50 values for the inhibition of ghrelin-induced contractility by representative compounds of the invention are presented in Table 7.

[7] = molecular target: T3, CYP2D6; test: biochemical
[8] = molecular target: T4, CYP3A4; test: biochemical
[9] = cited from earlier work
[10] = Ghrelin receptor binding activity, Method B1

Compound	Antagonist Activity [2]	IC50 [3] [nM]	IC50 [4] [nM]	also measured
CCC(C)[C@@H]1NCCOc2ccccc2/C=C/CNC(=O)[C@@H](Cc2ccccc2)NC(=O)[C@H](C(C)O)N(C)C1=O (stereo partly drawn) [Compound 1318]	C (C = 10-100 nM)	> 5000	3900	IC50 [1, 10]: 10 to 100 nM; Ki [1, 10]: 1 to 10 nM
CC(C)[C@@H]1NCCOc2ccccc2/C=C/CNC(=O)[C@@H](Cc2ccccc2)NC(=O)[C@H](C(C)O)N(C)C1=O (stereo partly drawn) [Compound 1319]				IC50 [1]: 10 to 100 nM; Ki [1]: 1 to 10 nM; HLM, metabolic stability in human liver microsomes [5]: 26.5 μL/min/mg protein; IC50 [6]: 72 nM; IC50 [7]: 19100 nM; IC50 [8]: 8000 nM
COC(C)[C@@H]1NCCOc2ccccc2/C=C/CNC(=O)[C@@H](Cc2ccccc2)NC(=O)[C@H](C(C)O)N(C)C1=O (stereo partly drawn) [Compound 1324]	D (D = 100-500 nM)	> 5000	> 5000	Ki [1, 10]: 10 to 100 nM
CCC(C)[C@@H]1NCCOc2ccccc2/C=C/CNC(=O)[C@@H](Cc2ccccc2F)NC(=O)[C@H](C(C)O)N(C)C1=O (stereo partly drawn) [Compound 1325]	C (C = 10-100 nM)	> 5000	> 3100	IC50 [1, 10]: 10 to 100 nM; Ki [1, 10]: 10 to 100 nM; IC50 [6]: 29 nM
CC(C)[C@@H]1NCCOc2ccccc2/C=C/CNC(=O)[C@@H](Cc2cccc(O)c2)NC(=O)[C@H](C(C)O)N(C)C1=O (stereo partly drawn) [Compound 1350]	C (C = 10-100 nM)	7900	5700	
CCC(C)[C@@H]1NCCOc2ccccc2CC[C@@H](C)NC(=O)[C@@H](Cc2ccccc2)NC(=O)[C@H](C(C)O)N(C)C1=O (stereo partly drawn) [Compound 1358]	C (C = 10-100 nM)	> 20000	1600	
CC(C)[C@@H]1NCCOc2ccccc2CC[C@@H](C)NC(=O)[C@@H](Cc2c[nH]c3ccccc23)NC(=O)[C@H](C(C)O)N(C)C1=O (stereo partly drawn) [Compound 1375]	B (B = 1-10 nM)	> 20000	8800	HLM, metabolic stability in human liver microsomes [5]: 58.4 μL/min/mg protein
CC(C)[C@@H]1NCCOc2ccccc2CC[C@@H](C)NC(=O)[C@@H](Cc2ccsc2)NC(=O)[C@H](C(C)O)N(C)C1=O (stereo partly drawn) [Compound 1399]	B (B = 1-10 nM)	> 20000	2300	
CC(C)[C@@H]1NCCOc2ccccc2CC[C@@H](C)NC(=O)[C@@H](Cc2ccc3ccccc3n2)NC(=O)[C@H](C(C)O)N(C)C1=O (stereo partly drawn) [Compound 1413]	B (B = 1-10 nM)	14700	1000	
COc1ccccc1C[C@H]1NC(=O)[C@H](C(C)O)N(C)C(=O)[C@H](C(C)C)NCCOc2ccccc2CC[C@@H](C)NC1=O (stereo partly drawn) [Compound 1418]	B (B = 1-10 nM)	14500	900	HLM, metabolic stability in human liver microsomes [5]: 32.2 μL/min/mg protein
CC(C)[C@@H]1NCCOc2ccc(F)cc2CC[C@@H](C)NC(=O)[C@@H](Cc2c[nH]c3ccccc23)NC(=O)[C@H](C(C)O)N(C)C1=O (stereo partly drawn) [Compound 1428]		9100	800	
CC(C)[C@@H]1NCCOc2cccc(F)c2CC[C@@H](C)NC(=O)[C@@H](Cc2c[nH]c3ccccc23)NC(=O)[C@H](C(C)O)N(C)C1=O (stereo partly drawn) [Compound 1429]		> 20000	700	
CC(C)[C@@H]1NCCOc2ccccc2/C=C/CNC(=O)[C@@H](Cc2cccc(Cl)c2)NC(=O)[C@H](C(C)O)N(C)C1=O (stereo partly drawn) [Compound 1432]	B (B = 1-10 nM)	5200	1200	HLM, metabolic stability in human liver microsomes [5]: 25.1 μL/min/mg protein
C=C[C@H]1C[N@@]2CC[C@H]1C[C@H]2[C@H](O)c1ccnc2ccc(OC)cc12 [quinine]				known plasma protein binding value ([9]; reference controls): ~35%
CC(=O)CC(c1ccccc1)c1c(O)c2ccccc2oc1=O (stereo not drawn) [warfarin]				known plasma protein binding value ([9]; plasma): ~98%
